The test system of one assay is TNBC BT-549 cells. In words: Cell survival / cell inhibition (MTT cell cytotoxicity assay) after 24 h treatment with photosensitizer and/or chemotherapeutic agent, dark or light-irradiated. The format is cell-based, human. The note with it: for viability at 0.1 µM / viability at 0.01 µM: paclitaxel; for viability at 0.1 µM: high end of 10-100 nM, read-out: cell survival, drug only (end of decrease); for viability at 0.01 µM: low end of 10-100 nM, read-out: cell survival, drug only (start of decrease). For orientation: Tetrazolium assays rely on reduction of a dye to a coloured formazan, in cell work by metabolically active cells.

The next assay concerns human TNBC BT-549 cells. In words: Fluorescence microscopy (Hoechst 33258) of cell morphology / cell death pathway. The assay is classed as cell-based. The note with it: paclitaxel 50 nM, unirradiated (FIG. 18I).
Assay [1] concerns human triple-negative breast cancer (TNBC) BT-549 cells. In words: Transmission electron microscopy of cell ultrastructure. The assay is classed as cell-based. The note with it: paclitaxel 50 nM. How it is done: Irregularly shaped nuclear membrane is apparent in treated cells in the dark or in the presence of light. Light dose in 30 seconds=0.48 J cm^−2. Concentrations: PSs=50 nM; paclitaxel=50 nM; and, fluororuracil=25 μM.
Cells were cultured to confluence in a petri dish ([…] in diameter), treated for 24 hrs with 500 nM of PS, then irradiated for 2 minutes as above. After 12 photosensitization 24 hours later, cells were scraped gently in the dark, fixed in 2.5% glutaraldehyde in 0.1M [COMPOUND LEFT OUT] buffer, then post-fixed with 1% osmium tetroxide (containing 0.8% [COMPOUND LEFT OUT], treated with 2% aqueous uranyl acetate, and subsequently dehydrated in gradient concentrations (50-100%) of varying ethanol:water mixtures. The resulting pellets were embedded in resin and consequently cut with an ultramicrotome to a 70 nm thickness, then viewed using Tecnai T20 transmission electron microscope.
Transmission electron micrographs of TNBC cells clearly differentiated distinct cellular compartments, in particular, of nuclear components and plasma membrane during treatment as shown in FIG. 19. A typical normal organelle morphology with smooth-contoured cellular plasma membrane is depicted in TNBC cells irradiated with light without treatment with PS nor chemotherapeutic agent (FIG. 19A). […]

Assay [2] concerns human gastric adenocarcinoma AGS cell line. The note with it: another study; cited from earlier work.
The mark [3] stands for this setting: Homo sapiens, BT-549, 24 h, dark.
Where [4] appears, read: Homo sapiens, BT-549, 24 h, light.

Entries after “also recorded” stand apart in the source; their conditions may differ. Read-outs that look alike come from different tables or passages of the source.

For the compound `CC(=O)O[C@H]1C(=O)[C@@]2(C)[C@H]([C@H](OC(=O)c3ccccc3)[C@]3(O)C[C@H](OC(=O)[C@H](O)[C@@H](NC(=O)c4ccccc4)c4ccccc4)C(C)=C1C3(C)C)[C@]1(OC(C)=O)CO[C@@H]1C[C@@H]2O` [paclitaxel, reference compound], the viability at 0.05 µM with TNBC BT-549 cells (Homo sapiens, BT-549, 24 h, paclitaxel 50 nM, dark, read-out: cell survival, drug only) was found to be 57%. In the assay with TNBC BT-549 cells (setting [3]), the viability at 0.1 µM was 49% and the viability at 0.01 µM was 64%. In addition, in the assay with TNBC BT-549 cells (setting [4]), the viability at 0.1 µM is 52% and the viability at 0.01 µM worked out at 66%. In addition, the “average increase in cell survival upon light irradiation compared to unirradiated cells, drug only” value in the assay with TNBC BT-549 cells (drug alone, light vs dark) was found to be 4%. Also, the “cell morphology, paclitaxel-treated” value with human TNBC BT-549 cells is “shrunk cells and chromatin fragmentation are evident; also recorded: Shrunk cells and chromatin condensation are evident”. Also, the “ultrastructure, paclitaxel in the dark” value in assay [1] (dark (FIG. 19C)) is “Irregularly shaped nuclear envelope; also recorded: loss of nuclear circularity and formation of chromatin condensation”. Besides, in assay [1] (light 0.48 J/cm^2 (FIG. 19E)), the “ultrastructure, paclitaxel irradiated” value was “smaller nuclei in multi-nucleated cells indicating chromosomal condensation; also recorded: split and fragmented with many atypical vesicular components in the cytosolic compartment”. Moreover, in assay [2], the “cell death modes triggered” value is “apoptosis, autophagy, and mitotic catastrophe were triggered”.

The record behind these values is patent US20260306633A1, “A COMBINATION THERAPY FOR CANCER TREATMENT” (Purdue Research Foundation, priority 2023, published 2026).
